Results on 16 molecules are retold here after patent US20120157433A1, “Heteroaryl Compounds as Kinase Inhibitors” (priority 2009, published 2012).

The first assay has as its system neointima formation.
Test: not given
To be noted: rats; cited from earlier work.
For `COc1ccc(CNc2nc(N(CCO)CCO)nc3c2ncn3C(C)C)cc1` [CVT-313], the “inhibition of neointima formation” value was “greater than 80%”.

For another assay, the target named is Cdk9/cyclinT1 (Homo sapiens, UniProt P50750). Put plainly: Cdk9/cyclinT1 kinase assay (IMAP or Alpha Screen protocol).
Sequence of Cdk9/cyclinT1 (P50750 whole entry): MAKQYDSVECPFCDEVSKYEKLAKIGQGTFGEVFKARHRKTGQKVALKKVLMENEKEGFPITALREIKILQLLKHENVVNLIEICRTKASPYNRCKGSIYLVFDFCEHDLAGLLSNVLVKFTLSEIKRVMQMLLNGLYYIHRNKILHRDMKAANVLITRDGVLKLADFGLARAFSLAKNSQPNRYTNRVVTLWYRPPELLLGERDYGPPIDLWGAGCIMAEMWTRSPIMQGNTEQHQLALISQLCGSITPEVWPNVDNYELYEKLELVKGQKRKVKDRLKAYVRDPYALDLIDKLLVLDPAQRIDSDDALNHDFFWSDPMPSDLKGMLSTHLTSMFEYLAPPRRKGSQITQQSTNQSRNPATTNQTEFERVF
Sequence of Cdk9/cyclinT1 (O60563 whole entry partner): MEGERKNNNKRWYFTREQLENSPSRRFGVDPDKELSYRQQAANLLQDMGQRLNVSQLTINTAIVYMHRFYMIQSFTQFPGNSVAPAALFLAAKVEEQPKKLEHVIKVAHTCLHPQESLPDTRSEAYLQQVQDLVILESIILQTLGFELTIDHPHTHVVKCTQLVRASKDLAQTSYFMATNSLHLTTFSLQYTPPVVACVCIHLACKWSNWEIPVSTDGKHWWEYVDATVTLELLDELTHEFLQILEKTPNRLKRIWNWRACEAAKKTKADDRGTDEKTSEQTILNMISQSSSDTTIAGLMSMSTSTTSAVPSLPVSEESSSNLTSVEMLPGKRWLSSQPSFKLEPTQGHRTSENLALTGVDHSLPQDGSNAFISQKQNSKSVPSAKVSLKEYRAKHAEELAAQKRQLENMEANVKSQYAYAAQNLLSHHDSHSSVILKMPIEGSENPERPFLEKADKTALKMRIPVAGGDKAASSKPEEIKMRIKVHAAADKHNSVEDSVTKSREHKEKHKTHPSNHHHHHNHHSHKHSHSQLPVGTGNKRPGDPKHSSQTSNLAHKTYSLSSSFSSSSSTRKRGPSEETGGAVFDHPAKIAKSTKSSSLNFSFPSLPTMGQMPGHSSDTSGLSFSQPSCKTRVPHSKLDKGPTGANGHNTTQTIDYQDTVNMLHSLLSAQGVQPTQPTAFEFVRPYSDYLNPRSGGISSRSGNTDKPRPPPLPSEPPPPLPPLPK
Details: not given
A word on the IC50: it is the point on the concentration scale where inhibition reaches its midpoint. Read a low IC50 as greater potency in that assay. Consider `O=C(Nc1cc(-c2ccccc2)c(Cl)cn1)[C@@H]1CCCNC1` [Example 1, (R)—N-(5-chloro-4-phenylpyridin-2-yl)piperidine-3-carboxamide], for which the IC50 was 20 nM.

Take `O=C(Nc1cc(-c2cccc(F)c2)c(Cl)cn1)[C@@H]1CCCNC1` [Example 2, (R)-Piperidine-3-carboxylic acid [5-chloro-4-(3-fluoro-phenyl)-pyridin-2-yl]-amide]: 10 nM corresponded to half-maximal inhibition (IC50).

With `COc1ccccc1-c1cc(NC(=O)[C@@H]2CCCNC2)ncc1Cl` [Example 3, (R)-Piperidine-3-carboxylic acid [5-chloro-4-(2-methoxy-phenyl)-pyridin-2-yl]-amide], the concentration for half-maximal inhibition (IC50) is under 8 nM.

Take `COc1ccc(F)cc1-c1cc(NC(=O)[C@@H]2CCCNC2)ncc1Cl` [Example 4, (R)—N-(5-Chloro-4-(5-fluoro-2-methoxyphenyl)pyridin-2-yl)piperidine-3-carboxamide]: the half-maximal inhibitory concentration (IC50) was under 8 nM.

Take `CC(C)Oc1ccc(F)cc1-c1cc(NC(=O)[C@@H]2CCCNC2)ncc1Cl` [Example 5, (R)-Piperidine-3-carboxylic acid [5-chloro-4-(5-fluoro-2-isopropoxy-phenyl)-pyridin-2-yl]-amide]: it took 2 nM to reach half-maximal inhibition (IC50).

In turn, `O=C(Nc1cc(-c2cccc(OCc3cccc(F)c3)c2)c(Cl)cn1)[C@@H]1CCCNC1` [Example 6, (R)-Piperidine-3-carboxylic acid {5-chloro-4-[3-(3-fluoro-benzyloxy)-phenyl]-pyridin-2-yl}-amide] had a 50% inhibitory concentration (IC50) of under 8 nM.

In turn, `O=C(Nc1cc(-c2cccc(NCC3CCOCC3)c2)c(Cl)cn1)[C@@H]1CCCNC1` [Example 7, (R)—N-(5-chloro-4-(3-(((tetrahydro-2H-pyran-4-yl)methyl)amino)phenyl)pyridin-2-yl)piperidine-3-carboxamide] showed an IC50 of under 8 nM.

`O=C(Nc1cc(-c2cccc(NCC3CCOCC3)c2)c(Cl)cn1)[C@H]1CCCNC1` [Example 8, (S)-Piperidine-3-carboxylic acid (5-chloro-4-{3-[(tetrahydro-pyran-4-ylmethyl)-amino]-phenyl}-pyridin-2-yl)-amide] had an IC50 of 23 nM.

As to `O=C(Nc1cc(-c2cc(F)cc(NCC3CCOCC3)c2)c(Cl)cn1)[C@@H]1CCCNC1` [Example 9, (R)—N-(5-Chloro-4-(3-fluoro-5-(((tetrahydro-2H-pyran-4-yl)-methyl)amino)phenyl)-pyridin-2-yl)piperidine-3-carboxamide], the IC50 is under 8 nM.

The molecule `CC(C)(C)OC(=O)N1CCC[C@@H](C(=O)Nc2cc(-c3cc(F)cc(NCC4CCOCC4)c3)c(Cl)cn2)C1` [Example 10, (R)-3-(5-Chloro-4-{3-fluoro-5-[(tetrahydro-pyran-4-ylmethyl)-amino]-phenyl}-pyridin-2-ylcarbamoyl)-piperidine-1-carboxylic acid tert-butyl ester] came in with an IC50 of 11 nM.

In the case of `O=C(Nc1cc(-c2cc(F)cc(NCC3CCOCC3)c2)c(Cl)cn1)[C@H]1CCCNC1` [Example 11, (S)-Piperidine-3-carboxylic acid (5-chloro-4-{3-fluoro-5-[(tetrahydro-pyran-4-ylmethyl)-amino]-phenyl}-pyridin-2-yl)-amide], the IC50 was determined as 11 nM.

In turn, `O=C(Nc1cc(-c2cc(NCC3CCOCC3)ccc2F)c(Cl)cn1)[C@@H]1CCCNC1` [Example 12, (R)-Piperidine-3-carboxylic acid (5-chloro-4-{2-fluoro-5-[(tetrahydro-pyran-4-ylmethyl)-amino]-phenyl}-pyridin-2-yl)-amide] yielded a half-maximal inhibitory concentration (IC50) of under 8 nM.

The molecule `O=C(Nc1cc(-c2ccc(Cl)c(NCC3CCOCC3)c2)c(Cl)cn1)[C@@H]1CCCNC1` [Example 13, (R)—N-(5-Chloro-4-(4-chloro-3-(((tetrahydro-2H-pyran-4-yl)methyl)amino)phenyl)-pyridin-2-yl)piperidine-3-carboxamide] gave a half-maximal inhibitory concentration (IC50) of under 8 nM.

Consider `O=C(Nc1cc(-c2cc(F)cc(NCC3CCOCC3)c2)c(Cl)cn1)C1CNCCO1` (stereo not shown) [Example 14, Morpholine-2-carboxylic acid (5-chloro-4-{3-fluoro-5-[(tetrahydro-pyran-4-ylmethyl)-amino]-phenyl}-pyridin-2-yl)-amide], for which the IC50 was under 8 nM.

`O=C(Nc1cc(-c2cc(NCC3CCOCC3)ccc2F)c(Cl)cn1)[C@H]1CNCCO1` [Example 15, (R)-Morpholine-2-carboxylic acid (5-chloro-4-{2-fluoro-5-[(tetrahydro-pyran-4-ylmethyl)-amino]-phenyl}-pyridin-2-yl)-amide] registered a half-maximal inhibitory concentration (IC50) of 16 nM.
